{"source": "patent US9192164B2", "about": "“Membrane sterilization” (SABAN VENTURES PTY LIMITED, priority 2005, dated 2015)", "key": {"[1]": {"settings": "rabbits, EU criteria (ECETOC, 1996); solution of 35% or less; cited from earlier work"}, "bio burden": {"tested_on": "bio burden", "settings": "for Log reduction in bio burden: KIMGUARD bag, air RH=20% at 12 m/s over exterior"}}, "note": "Where two headings read alike, the source gives them in different places."}
{"substance": "hydrogen peroxide [H2O2]", "values": [{"measurement": "Classification as skin irritant", "setting": "[1]", "result": "would not be classified as skin irritants"}, {"measurement": "Pennicylinders Plate count", "setting": "bio burden; Expt A: initial H2O2 10%, nebulizer 2/18 sec ON/Off for 2 mins, total exposure 5 mins, 40 °C in bag", "result": 0}, {"measurement": "Pennicylinders Log reduction of bio burden", "setting": "bio burden; Expt A: initial H2O2 10%, nebulizer 2/18 sec ON/Off for 2 mins, total exposure 5 mins, 40 °C in bag, 0.0338 g/L delivered", "result": 6.0}, {"measurement": "Pennicylinders Plate count", "setting": "bio burden; Expt B: initial H2O2 30%, nebulizer 8/12 sec ON/Off for 2 mins, total exposure 2 mins, 44 °C in bag", "result": 0}, {"measurement": "Pennicylinders Log reduction of bio burden", "setting": "bio burden; Expt B: initial H2O2 30%, nebulizer 8/12 sec ON/Off for 2 mins, total exposure 2 mins, 44 °C in bag, 0.246 g/L delivered", "result": 6.0}, {"measurement": "Log reduction in bio burden", "setting": "bio burden; within 2 minutes nebulising a 30% peroxide solution", "result": 6}, {"measurement": "Log reduction in bio burden", "setting": "bio burden; within 5 minutes nebulising a 10% peroxide solution", "result": 6}]}
